Assay results taken from patent US20240059703A1 (AMGEN INC., priority 2021, published 2024).

What was measured:
KRAS G12C = KRAS G12C (Homo sapiens (Human), UniProt P01116, C118A/G12C); test: 2 h coupled exchange assay; assay type: biochemical; conditions: Avg 2 h Coupled exchange IC50, 2 h compound pre-incubation
Method: The term “2 h coupled exchange assay” or “20 h coupled exchange assay” as used herein refers to the assay described in the Section entitled “BIOLOGICAL EVALUATION.”

[1] = tested on: MIA PaCa-2 (human pancreatic carcinoma) cells; test: Cell Viability Assay (CellTiter-Glo), MIA PaCa-2; assay type: cell-based
Method: Serially-diluted compound or DMSO was added to the cells, and plates were incubated at 37° C., 5% CO2 for 72 h. Cell viability was measured using a CellTiter-Glo® Luminescent Cell Viability Assay kit (Promega) according to the manufacturer's protocol. The luminescence signal of treated samples was normalized to DMSO control, and data were analyzed using a 4-parameter logistic model to calculate IC50 values.

[2] = tested on: A549 (human lung carcinoma) cells; test: Cell Viability Assay (CellTiter-Glo), A549; assay type: cell-based
Outline: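 Luminescent ATP read-out (CellTiter-Glo) after 72 h compound treatment of cells seeded overnight at 1.67E+04 cells/mL in RPMI 1640, 10% FBS; signal relative to DMSO, IC50 by 4-parameter logistic model.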

[3] = SOS-mediated nucleotide exchange

Sequence of KRAS G12C (P01116 other isoform, or with tags, fused parts or gaps G12C/C118A): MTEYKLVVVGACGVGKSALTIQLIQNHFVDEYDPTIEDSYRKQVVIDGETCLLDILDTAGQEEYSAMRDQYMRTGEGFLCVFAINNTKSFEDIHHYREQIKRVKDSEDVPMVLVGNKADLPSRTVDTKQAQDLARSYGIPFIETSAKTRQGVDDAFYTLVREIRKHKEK

IC50 (KRAS G12C) [µM]	IC50 ([1]; Homo sapiens, MIA PaCa-2, 72 h) [µM]	IC50 ([2]; Homo sapiens, A549, 72 h) [µM]	IC50 (KRAS G12C; [3]) [µM]	IC50 ([1]; 72 h) [µM]	IC50 ([2]; 72 h) [µM]	Compound
0.074	0.714	3.78				C=CC(=O)N1CC2(CCN(c3nc4c(c(-c5ccc(F)cc5F)c3C#N)CCC(c3scnc3C)=C4)C2)C1 [Example 23-21, 4-(2,4-difluorophenyl)-7-(4-methyl-1,3-thiazol-5-yl)-2-(2-(2-propenoyl)-2,6-diazaspiro[3.4]octan-6-yl)-5,6-dihydro-3-quinolinecarbonitrile]
0.391	1.23	8.87				C=CC(=O)N1CC2(CCN(c3nc4c(c(-c5cccc(F)c5OC)c3C#N)CCC(c3scnc3C)=C4)C2)C1 [Example 23-53, 4-(3-fluoro-2-methoxyphenyl)-7-(4-methyl-1,3-thiazol-5-yl)-2-(2-(2-propenoyl)-2,6-diazaspiro[3.4]octan-6-yl)-5,6-dihydro-3-quinolinecarbonitrile]
0.371	7.48	12.1				C=CC(=O)N1CC2(CCN(c3nc4cc(-c5scnc5C)cnc4c(-c4ccc(F)c(O)c4)c3C#N)C2)C1 [Example 20-22, 4-(4-fluoro-3-hydroxyphenyl)-7-(4-methyl-1,3-thiazol-5-yl)-2-(2-(2-propenoyl)-2,6-diazaspiro[3.4]octan-6-yl)-1,5-naphthyridine-3-carbonitrile]
0.958	4.97	10.8				C=CC(=O)N1CC2(CCN(c3nc4cc(-c5scnc5C)cnc4c(-c4cccc(O)c4)c3C#N)C2)C1 [Example 20-21, 4-(3-hydroxyphenyl)-7-(4-methyl-1,3-thiazol-5-yl)-2-(2-(2-propenoyl)-2,6-diazaspiro[3.4]octan-6-yl)-1,5-naphthyridine-3-carbonitrile]
0.069				1.01	> 5	C=CC(=O)N1CC2(CCN(c3nc4cc(-c5scnc5C)ccc4c(-c4ccccc4Cl)c3C#N)C2)C1 (single isomer, unassigned) [Example 20-4, (P)-4-(2-chlorophenyl)-7-(4-methyl-1,3-thiazol-5-yl)-2-(2-(2-propenoyl)-2,6-diazaspiro[3.4]octan-6-yl)-3-quinolinecarbonitrile]
0.168	2.24	6.72				C=CC(=O)N1CC2(CCN(c3nc4c(c(-c5cc(OC)ccc5Cl)c3C#N)CCC(c3scnc3C)=C4)C2)C1 [Example 23-31, 4-(2-chloro-5-methoxyphenyl)-7-(4-methyl-1,3-thiazol-5-yl)-2-(2-(2-propenoyl)-2,6-diazaspiro[3.4]octan-6-yl)-5,6-dihydro-3-quinolinecarbonitrile]
0.094	0.749	6.02				C=CC(=O)N1CC2(CCN(c3nc4c(c(-c5ccc(F)cc5F)c3C#N)CCN(c3ccc(OC)cc3)C4)C2)C1 [Example 21-7, 4-(2,4-difluorophenyl)-7-(4-methoxyphenyl)-2-(2-(2-propenoyl)-2,6-diazaspiro[3.4]octan-6-yl)-5,6,7,8-tetrahydro-1,7-naphthyridine-3-carbonitrile]
0.047	0.17	> 5				C=CC(=O)N1CC2(CCN(c3nc4c(c(-c5cccc6cc(O)ccc56)c3C)CCN(C(C)COC)C4)C2)C1 [Example 18-8, 1-(6-(4-(6-hydroxy-1-naphthalenyl)-7-((2R)-1-methoxy-2-propanyl)-3-methyl-5,6,7,8-tetrahydro-1,7-naphthyridin-2-yl)-2,6-diazaspiro[3.4]octan-2-yl)-2-propen-1-one|1-(6-(4-(6-hydroxy-1-naphthalenyl)-7-((2S)-1-methoxy-2-propanyl)-3-methyl-5,6,7,8-tetrahydro-1,7-naphthyridin-2-yl)-2,6-diazaspiro[3.4]octan-2-yl)-2-propen-1-one]
0.014	1.07	> 5				C=CC(=O)N1CC2(CCN(c3nc4c(c(-c5cc(O)ccc5Cl)c3C#N)CCN(c3scnc3C)C4)C2)C1 [Example 21-13, 4-(2-chloro-5-hydroxyphenyl)-7-(4-methyl-1,3-thiazol-5-yl)-2-(2-(2-propenoyl)-2,6-diazaspiro[3.4]octan-6-yl)-5,6,7,8-tetrahydro-1,7-naphthyridine-3-carbonitrile]
0.139		> 5		0.974		C=CC(=O)N1CC2(CCN(c3nc4cc(-c5scnc5C)cnc4c(-c4ccccc4Cl)c3C#N)C2)C1 (single isomer, unassigned) [Example 20-8, (M)-4-(2-chlorophenyl)-7-(4-methyl-1,3-thiazol-5-yl)-2-(2-(2-propenoyl)-2,6-diazaspiro[3.4]octan-6-yl)-1,5-naphthyridine-3-carbonitrile]
0.146	1.44	> 5				C=CC(=O)N1CC2(CCN(c3nc4cc(-c5scnc5C)ccc4c(-c4ccccc4F)c3C#N)C2)C1 [Example 20-2, 4-(2-fluorophenyl)-7-(4-methyl-1,3-thiazol-5-yl)-2-(2-(2-propenoyl)-2,6-diazaspiro[3.4]octan-6-yl)-3-quinolinecarbonitrile]

Second part, the compound before the results:

Compound	IC50 (KRAS G12C) [µM]	IC50 ([1]; Homo sapiens, MIA PaCa-2, 72 h) [µM]	IC50 ([2]; Homo sapiens, A549, 72 h) [µM]	IC50 (KRAS G12C; [3]) [µM]	IC50 ([1]; 72 h) [µM]	IC50 ([2]; 72 h) [µM]
C=CC(=O)N1CC2(CCN(c3nc4cc(-n5ccnc5C)ccc4c(-c4ccccc4F)c3C#N)C2)C1 [Example 17-5, 4-(2-fluorophenyl)-7-(2-methyl-1H-imidazol-1-yl)-2-(2-(2-propenoyl)-2,6-diazaspiro[3.4]octan-6-yl)-3-quinolinecarbonitrile]	0.07	1.27	4.43			
C=CC(=O)N1CC2(CCN(c3nc4c(c(-c5c(C)ccc6[nH]ncc56)c3C)CCC(C)(C)C4)C2)C1 (single isomer, unassigned) [Example 2-11, (P)-1-(6-(3,7,7-trimethyl-4-(5-methyl-1H-indazol-4-yl)-5,6,7,8-tetrahydro-2-quinolinyl)-2,6-diazaspiro[3.4]octan-2-yl)-2-propen-1-one]		0.053	6.75	0.027		
C=CC(=O)N1CC2(CCN(c3nc4c(c(-c5c(C)ccc6[nH]ncc56)c3C#N)CCCC4(F)F)C2)C1 [Example 13-96, 2-(2-acryloyl-2,6-diazaspiro[3.4]octan-6-yl)-8,8-difluoro-4-(5-methyl-1H-indazol-4-yl)-5,6,7,8-tetrahydroquinoline-3-carbonitrile]		> 5	> 5	0.325		
C=CC(=O)N1CC2(CCN(c3cc4c(c(-c5cc(O)cc6ccccc56)c3C#N)OCCC4)C2)C1 (single isomer, unassigned) [Example 2-54, (M)-8-(3-hydroxy-1-naphthalenyl)-6-(2-(2-propenoyl)-2,6-diazaspiro[3.4]octan-6-yl)-3,4-dihydro-2H-chromene-7-carbonitrile]		0.056	> 5	0.028		
C=CC(=O)N1CC2(CCN(c3nc(-c4ccccc4F)c4ccn([C@H](CC(=O)NC)CC(C)C)c4n3)C2)C1 (single isomer, unassigned) [Example 11]		1.16	12.6	1.94		
C=CC(=O)N1CC2(CCN(c3nc4c(c(-c5c(N)c(Cl)cc(Cl)c5F)c3C#N)COC(C)(C)C4)C2)C1 (single isomer, unassigned) [Example 13-156, 4-(2-amino-3,5-dichloro-6-fluorophenyl)-7,7-dimethyl-2-(2-(2-propenoyl)-2,6-diazaspiro[3.4]octan-6-yl)-7,8-dihydro-5H-pyrano[4,3-b]pyridine-3-carbonitrile]				140	5.92	8.16
C=CC(=O)N1CC2(CCN(c3nc4c(c(-c5c(C)ccc6cn[nH]c56)n3)CCCC4)C2)C1 [Example 1-16, 1-(6-(4-(6-methyl-1H-indazol-7-yl)-5,6,7,8-tetrahydro-2-quinazolinyl)-2,6-diazaspiro[3.4]octan-2-yl)-2-propen-1-one]		10.3	> 25	6.72		
C=CC(=O)N1CC2(CCN(c3nc4c(c(-c5c(C)ccc6[nH]ncc56)c3C#N)COC3(CCOC3)C4)C2)C1 [Example 13-51, (3R)-4′-(5-methyl-1H-indazol-4-yl)-2′-(2-(2-propenoyl)-2,6-diazaspiro[3.4]octan-6-yl)-4,5,5′,8′-tetrahydrospiro[furan-3,7′-pyrano[4,3-b]pyridine]-3′-carbonitrile|(3S)-4′-(5-methyl-1H-indazol-4-yl)-2′-(2-(2-propenoyl)-2,6-diazaspiro[3.4]octan-6-yl)-4,5,5′,8′-tetrahydrospiro[furan-3,7′-pyrano[4,3-b]pyridine]-3′-carbonitrile]		0.287	> 5	0.095		
C=CC(=O)N1CC2(CCN(c3nc4c(c(-c5ccccc5Cl)c3C#N)COC(C)(C)C4)C2)C1 [Example 13-5, 4-(2-chlorophenyl)-7,7-dimethyl-2-(2-(2-propenoyl)-2,6-diazaspiro[3.4]octan-6-yl)-7,8-dihydro-5H-pyrano[4,3-b]pyridine-3-carbonitrile]		> 5	> 5	0.973		
C=CC(=O)N1CC2(CCN(c3nc4c(c(-c5cc(O)ccc5Cl)c3C#N)C[C@H]3C[C@@H]4C3(C)C)C2)C1 [Example 2-64, (1R,9R)-6-(2-chloro-5-hydroxyphenyl)-10,10-dimethyl-4-(2-(2-propenoyl)-2,6-diazaspiro[3.4]octan-6-yl)-3-azatricyclo[7.1.1.0^2,7]undeca-2,4,6-triene-5-carbonitrile]		0.432	> 5	0.039		
